Data published in patent US11965180B2, “Cancer stem cell population and method for production thereof” (CHUGAI SEIYAKU KABUSHIKI KAISHA, priority 2010, dated 2024).

Key:
Assay type in all cases: cell-based, human
[1] = system: Lgr5-positive colon cancer stem cells; experiment: Lgr5 expression in adherent cancer stem cells after chemotherapeutic agent treatment (flow cytometry); conditions: after 3 days of exposing Lgr5-positive colon cancer stem cells to 10 μg/ml
Experimental: Gray indicates fluorescence intensity or ALDH activity after staining cells with the antibodies described. White indicates fluorescence intensity or ALDH activity of an ALDH inhibitor after staining cells with a control isotype antibody.
CSC was incubated with a labeled antibody and analyzed using EPICS ALTRA (Beckman Coulter) and FACSCalibur (Becton Dickinson). The antibodies used were PE-labeled mouse anti-human CD133 (Miltenyi Biotec), PE-labeled mouse anti-human CD44 (BD Pharmingen), FITC-labeled mouse anti-human CD326 (EpCAM) (Miltenyi Biotec), PE-labeled mouse anti-human CD166 (R & D Systems), PE-labeled mouse anti-human CD24 (BD Pharmingen), PE-labeled mouse anti-human CD26 (BD Pharmingen), and PE-labeled mouse anti-human CD29 (BD Pharmingen) antibodies.
Subsequently, the CSC was incubated with a mouse anti-human Lgr5 antibody (2T15E-2) and then a PR-labeled rat anti-mouse IgG (Invitrogen) antibody for Lgr5 staining. Aldehyde dehydrogenase activity was measured using the AldeFluor Kit (Stemcell Technologies). Mouse cells and human CSC were distinguished by staining with an anti-mouse MHC class I antibody (Abcam) and a PE- or APC-labeled goat anti-human IgG2a (BioLegend) antibody. Dead cells were removed with the 7-AAD Viability Dye (Beckman Coulter).

[2] = system: Lgr5-positive colon cancer stem cells; experiment: Cell growth, Cell Counting Kit-8, adherent cancer stem cells; conditions: 3-day culture; for growth of Lgr5-positive colon cancer stem cells: PLR123 and PLR59 cells
Experimental: (§1) To determine whether or not the Wnt signaling promotes the growth of colon cancer stem cells, the inventors examined the effects of FH535 (β-catenin/TCF inhibitor) and cardamonin (Wnt/β-catenin inhibitor that induces β-catenin degradation) on the growth of colon cancer stem cells. Cell growth was evaluated as described below. Floating and adherent cancer stem cells were seeded at about 100 and 1×10^4 cells per well, respectively, in 96-well plates. On days 0 and 3, living cells were counted using the Cell Counting Kit-8 assay (Doujindo) according to the manufacturer's protocol. The average absorbance on day 0 was expressed as 100%. For chemical sensitivity analysis, floating and adherent cancer stem cells were seeded at about 100 and 1×10^4 cells per well in 96-well plates, respectively. […] After 3-day culture in the presence of a drug, Cell Counting Kit-8 was added to the cells. The average absorbance of cells exposed to DMSO or the medium alone was expressed as 100%. All the experiments were conducted in triplicate.

[3] = system: Lgr5-negative colon cancer stem cells; experiment: Cell growth, Cell Counting Kit-8, floating cancer stem cells; conditions: 3-day culture; for growth and survival of Lgr5-negative colon cancer stem cells: 10 μg/ml
Experimental: as §1

O=c1[nH]cc(F)c(=O)[nH]1 [5-FU]
Lgr5 status of drug-resistant cells [1]: negative for Lgr5
growth of Lgr5-positive colon cancer stem cells ([2]; 10 μg/ml): significantly inhibited the growth
growth and survival of Lgr5-negative colon cancer stem cells ([3]; PLR123 and PLR59 cells): had no effect on the growth and survival

CCc1c2c(nc3ccc(OC(=O)N4CCC(N5CCCCC5)CC4)cc13)-c1cc3c(c(=O)n1C2)COC(=O)[C@]3(O)CC [irinotecan]
growth of Lgr5-positive colon cancer stem cells ([2]; 10 μg/ml): significantly inhibited the growth
growth and survival of Lgr5-negative colon cancer stem cells ([3]; PLR123 and PLR59 cells): had no effect on the growth and survival

Cc1cc([N+](=O)[O-])ccc1NS(=O)(=O)c1cc(Cl)ccc1Cl [FH535]
growth of Lgr5-positive colon cancer stem cells ([2]; 50 μM): significantly reduced the growth
growth of Lgr5-negative colon cancer stem cells ([3]; 50 μM, PLR123 and PLR59 cells): had no effect on the growth

COc1cc(O)cc(O)c1C(=O)/C=C/c1ccccc1 [cardamonin]
number of living cells ([2]; 50 μM, relative to DMSO alone, Lgr5-positive colon cancer stem cells): 70%
number of living cells ([3]; 50 μM, relative to DMSO alone, Lgr5-negative colon cancer stem cells): about 50%
